Assay results published in PMC10547636 (Pharmaceutical Research, 2023).

Tests used:
[1] = Population pharmacokinetic analysis (NONMEM) of intravenous PCM and its metabolites in plasma and urine of preterm neonates born below 32 weeks of gestation; type: in vivo; details: for fVG / fVS / fVO, distribution volume of metabolite as fraction of VP of PCM: V = fV×VP
Description: Two datasets were pooled in this study. […] The second dataset consisted of data from 83 neonates born before 32 weeks of gestation who were included in the Drug dosage Improvement in Neonates (DINO) study between September 2014 and July 2017. This study was conducted in four Dutch Neonatal Intensive Care Units. The Erasmus Medical Center ethics review board approved the protocols, and written informed consent from parents/legal guardians was obtained before study initiation (NL47409.078.14, MEC-2014-067, NCT02421068). […] The actual urine collection interval and volume varied and were recorded. Plasma samples of all patients were available. […] In dataset 2, the dosing schedule was based on current weight according to Wang et al. […] The dosing regimen could be adapted in individual patients by the treating physician. […] No urine samples were collected. […] For those BLOQ samples, the values obtained with the assay were still reported and these were used in the PopPK analysis. […] Processing and visualization of output from NONMEM were performed in R 4.2.3 (CRAN.R-project.org). Parameters were estimated using the first-order conditional estimation with interaction (FOCE + I) method. […] Parameter precision was obtained with the R covariance matrix. […] The stochastic model included interindividual variability (IIV) and residual variability (RUV). […] SD assumes that the standard deviation of the residual error is the sum of the additive and proportional components. Separate SD1 and SD2 values were tested for each dataset, compound and for plasma and urine samples. […] In those cases, linear interpolation was used for current weight between two existing current weight measurements of the particular patient. For implementation of continuous covariates (birthweight, current weight, GA, PNA, PMA, birthweight Z-score), linear, power, exponential, and sigmoidal functions were tested. For categorical covariates (gender, SGA), additive shift models were tested. Covariates were evaluated based on OFV by a stepwise forward inclusion (ΔOFV > 6.64, P < 0.01) and backward deletion (ΔOFV < 10.83, P > 0.001) process. Besides this, goodness of fit plots split for datasets and covariate quartiles, plots of individual eta-values versus covariate values (ETA plots), and reduction in inter-individual variability on the parameter of interest, were evaluated. A bootstrap analysis (n = 500) stratified on dataset, was performed to assess the robustness of the final model and parameter estimates. […] The NPDEs of urine samples were plotted together due to a limited number of samples per compound. […] This was done to illustrate the concentration-time profiles of each compound under the current practice of linear bodyweight-based dosing. […] In these simulations, the growth curves published by Anchieta et al.

[2] = adults; ref [3], [4]; cited from earlier work

| θPNA50, PNA at which RFS reaches half of RFS0, bootstrap ([1]; PNA in days, bootstrap estimate (95% CI)) | θPNA50, PNA at which RFS reaches half of RFS0 ([1]; PNA in days, final model estimate (RSE %)) | non-linear formation of CYP2E1 pathway metabolites (PCM-cysteine and PCM-mercapturate) ([1]; among the dosages given in this study) | predicted difference in glucuronidation of PCM with PNA ([1]; between day 1 and day 30) | θBWb, power exponent of birthweight (BWb/985) on RFG, bootstrap ([1]; bootstrap estimate (95% CI)) | θBWc, power exponent of current weight (BWc/1012) on VP, bootstrap ([1]; bootstrap estimate (95% CI)) | VPP, distribution volume of the peripheral compartment, bootstrap ([1]; bootstrap estimate (95% CI), in L) | TVVP, typical distribution volume of the central compartment (VP), bootstrap ([1]; current weight 1012 g, bootstrap estimate (95% CI)) | TVVP, typical distribution volume of the central compartment (VP) ([1]; current weight 1012 g, final model estimate (RSE %)) | θBWb, power exponent of birthweight (BWb/985) on RFG ([1]; final model estimate (RSE %)) | θBWc, power exponent of current weight (BWc/1012) on VP ([1]; final model estimate (RSE %)) | VPP, distribution volume of the peripheral compartment ([1]; final model estimate (RSE %), in L) | contribution of glucuronidation to elimination in neonates ([1]; preterm neonates of this study) | fVG / fVS / fVO, distribution volume of metabolite as fraction of VP of PCM ([1]; final model estimate (RSE %)) | TVCLrG / TVCLrS / TVCLrO, typical renal clearance of metabolite, bootstrap ([1]; birthweight 985 g, PNA 5 days, bootstrap estimate (95% CI)) | TVCLrG / TVCLrS / TVCLrO, typical renal clearance of metabolite ([1]; birthweight 985 g, PNA 5 days, final model estimate (RSE %)) | fVG / fVS / fVO, distribution volume of metabolite as fraction of VP of PCM, bootstrap ([1]; bootstrap estimate (95% CI)) | Structure (SMILES) | fraction of PCM metabolized into sulphate conjugate [2] [%] | fraction of administered PCM excreted unchanged in the urine [2] | fraction of administered dose metabolized via the oxidative route (NAPQI) [2] |
| --- | --- | --- | --- | --- | --- | --- | --- | --- | --- | --- | --- | --- | --- | --- | --- | --- | --- | --- | --- | --- |
| 8.71 (4.55–15.6) | 9.18 (23) | could not identify this non-linearity | sixfold | 0.487 (0.137–0.917) | 0.844 (0.659–1.05) | 0.247 (0.167–0.348) | 0.955 (0.775–1.030) L | 0.955 (3) L | 0.479 (45) | 0.836 (11) | 0.244 (12) | 5–15% |  |  |  |  | CC(=O)Nc1ccc(O)cc1 [PCM, paracetamol] | ~30 | 2–5% | 8–10% |
|  |  |  |  |  |  |  |  |  |  |  |  |  | 0.6 (9) | 0.0428 (0.0383–0.0482) L/h | 0.0425 (5) L/h | 0.6 (0.5–0.8) | CC(=O)Nc1ccc(O[C@@H]2O[C@H](C(=O)O)[C@@H](O)[C@H](O)[C@H]2O)cc1 [PCM-glucuronide, paracetamol-glucuronide] |  |  |  |
|  |  |  |  |  |  |  |  |  |  |  |  |  | 0.326 (4) |  |  | 0.330 (0.300–0.417) | CC(=O)Nc1ccc(OS(=O)(=O)O)cc1 [PCM-sulfate, paracetamol-sulfate] |  |  |  |
